The text below walks through data of patent publication US20240293413A1, “COMPOUND AND METHOD FOR TREATING CHEMOTHERAPY-RELATED GASTROINTESTINAL SIDE EFFECTS” (ONQUALITY PHARMACEUTICALS CHINA LTD., priority 2021, published 2024).

Common to all, as to format: in vivo
For experiment [1], the system named is Chemotherapeutic agent-caused diarrhea models of Balb/c mice. Kind of experiment: Examples 1-229 (Table 3): oral CDK inhibitor, relief of diarrhea caused by a chemotherapeutic agent.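 Further: percent of treated mice whose diarrhea grade fell below chemotherapy-group average.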 An excerpt: Construction of mouse animal models: Chemotherapeutic agent-caused diarrhea models of Balb/c mice were constructed according to the administration mode and frequency of the chemotherapeutic agent as shown in Table 3.
Balb/c mice were fed for 1 week, and then divided into groups. The experiment was divided into a control group, a chemotherapeutic agent group, and a CDK inhibitor group, each of which comprised 10 mice, to perform the administration experiment, for which the administration dosage, mode, time and frequency were shown in Table 3. The control group: being intragastrically administered with the same solvent as that used in the CDK inhibitor group (the time was shown in Table 3), and then being injected/intragastrically administered with the same solvent as that used in the chemotherapeutic agent group (the administration mode was shown in Table 3): the chemotherapeutic agent group: being intragastrically administered with the same solvent as that used in the CDK inhibitor group (the time was shown in Table 3), and then being injected/intragastrically administered with the chemotherapeutic agent (the type, administration mode and dosage were shown in Table 3); the CDK inhibitor group: being intragastrically administered with the CDK inhibitor (the time was shown in Table 3), and then being administered with the chemotherapeutic agent (the mode and dosage were shown in Table 3).
(§1) The diarrhea grading of mice was observed and recorded every day.

Experiment [2] deals with Chemotherapeutic agent-caused constipation models of Balb/c mice. Nature of the experiment: Examples 272-342 (Table 5): oral CDK inhibitor, relief of constipation caused by a chemotherapeutic agent.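 Further: percent of treated mice relieved versus chemotherapy group by feces reduction rate.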 To be noted: cycle 8 days. An excerpt:
Construction of mouse animal models: Chemotherapeutic agent-caused constipation models of Balb/c mice were constructed according to the administration mode and frequency of the chemotherapeutic agent as shown in Table 5.
Balb/c mice were fed for 1 week, and then divided into groups. The experiment was divided into a control group, a chemotherapeutic agent group, and a CDK inhibitor group, each of which comprised 10 mice, to perform the administration experiment, for which the administration dosage, mode, time and frequency were shown in Table 5. The control group: being intragastrically administered with the same solvent as that used in the CDK inhibitor group (the time was shown in Table 5), and then being injected/intragastrically administered with the same solvent as that used in the chemotherapeutic agent group (the administration mode was shown in Table 5): the chemotherapeutic agent group: being intragastrically administered with the same solvent as that used in the CDK inhibitor group (the time was shown in […]), and then being injected/intragastrically administered with the chemotherapeutic agent (the type, administration mode and dosage were shown in Table 5): the CDK inhibitor group: being intragastrically administered with the CDK inhibitor (the time was shown in Table 5), and then being administered with the chemotherapeutic agent (the mode and dosage were shown in Table 5).
Feces reduction rate (%)=(the control group−the chemotherapeutic agent group or the CDK inhibitor group)/the control group*100%
The feces amount of mice within 3 hours was observed and recorded every day.

For experiment [3], the system named is diarrhea caused by a chemotherapeutic agent in Balb/c mice. Nature of the experiment: Examples 343-381 (Table 6): oral versus intravenous CDK inhibitor, relief of diarrhea caused by a chemotherapeutic agent.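 On Relative remission rate: percent of treated mice whose diarrhea grade fell below chemotherapy-group average.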 To be noted: for Relative remission rate: Example 369, Topotecan (TP) intramuscular injection 10 mg/kg single, 12 h before, cycle 10 days.
Text: Balb/c mice were fed for 1 week, and then divided into groups. The experiment was divided into a control group, a chemotherapeutic agent group, and an oral administration group of a CDK inhibitor, and an intravenous injection group of a CDK inhibitor, each of which comprised 10 mice, to perform the administration experiment, for which the administration dosage, mode, time and frequency were shown in Table 6. The control group: being injected/intragastrically administered with the same solvent as that used in the CDK inhibitor group (the time was shown in Table 6), and then being injected/intragastrically administered with the same solvent as that used in the chemotherapeutic agent group (the administration mode was shown in Table 6): the chemotherapeutic agent group: being injected/intragastrically administered with the same solvent as that used in the CDK inhibitor group (the time was shown in Table 6), and then being injected/intragastrically administered with the chemotherapeutic agent (the type, administration mode and dosage were shown in Table 6): the oral administration group of the CDK inhibitor: being intragastrically administered with the CDK inhibitor (the time was shown in Table 6), and then being administered with the chemotherapeutic agent (the mode and dosage were shown in Table 6): the intravenous injection group of the CDK inhibitor: being injected with the CDK inhibitor through tail vein (the time was shown in Table 6), and then being administered with the chemotherapeutic agent (the mode and dosage were shown in Table 6).
as §1

With `CN[C@@H]1C[C@H]2O[C@@](C)([C@@H]1OC)n1c3ccccc3c3c4c(c5c6ccccc6n2c5c31)C(=O)N[C@H]4O` [KRX-0601], the “Relative remission rate (%)” value in experiment [1] (Example 165, Docetaxel (DTX) oral administration 30 mg/kg single, CDK inhibitor oral 250 mg/kg single 3 h before, cycle 8 days) is on record as 10%. For the same compound, the Relative remission rate in experiment [2] (Example 334, Cytarabine (Ara-C) intramuscular injection 600 mg/kg single, CDK inhibitor oral 40 mg/kg single, 12 h before) was determined as 10%; in experiment [3] (CDK inhibitor intravenous injection 250 mg/kg single) it was 10%; in experiment [3] (CDK inhibitor oral 250 mg/kg single) it was 20%. Moreover, in experiment [3] (diarrhea caused by etoposide, etoposide in combination with cisplatin, carboplatin, gemcitabine, gemcitabine in combination with carboplatin, and topotecan, oral administration has the most significant effect), the “relief of diarrhea by oral administration and injection administration” value is on record as “effectively relieve diarrhea”.
As to `CNC(=O)c1nn(C)c2c1C(C)(C)Cc1cnc(Nc3ccc(N4CCN(C)CC4)cc3)nc1-2` [Milciclib], the “Relative remission rate (%)” value in experiment [1] (Example 194, Gemcitabine 60 mg/kg and paclitaxel 10 mg/kg intraperitoneal injection single, CDK inhibitor oral 60 mg/kg single, 2 h before, 8 days) amounted to 40%. The Relative remission rate in experiment [2] (Example 315, Docetaxel (DTX) intraperitoneal injection 15 mg/kg single, CDK inhibitor oral 60 mg/kg single, 0.5 h before) stood at 30%; in experiment [2] (Example 316, Docetaxel (DTX) intraperitoneal injection 15 mg/kg single, CDK inhibitor oral 60 mg/kg single, 4 h before) it was 20%; in experiment [2] (Example 317, Docetaxel (DTX) intraperitoneal injection 15 mg/kg single, CDK inhibitor oral 60 mg/kg single, 8 h before), 20%; in experiment [2] (Example 318, Docetaxel (DTX) intraperitoneal injection 15 mg/kg single, CDK inhibitor oral 60 mg/kg single, 12 h before), 30%; in experiment [2] (Example 319, Docetaxel (DTX) intraperitoneal injection 15 mg/kg single, CDK inhibitor oral 60 mg/kg single, 24 h before), 10%; in experiment [2] (Example 320, Docetaxel (DTX) intraperitoneal injection 15 mg/kg single, CDK inhibitor oral 60 mg/kg single, 48 h before), 0%.
Consider `CC(=O)c1c(C)c2cnc(N[C@@H]3CCOC[C@H]3O)cc2n(C2CCCC2)c1=O` [PF-06842874], for which the “Relative remission rate (%)” value in experiment [1] (Example 210, Carboplatin 5 mg/kg and paclitaxel 10 mg/kg intraperitoneal injection single, CDK inhibitor oral 80 mg/kg single, 6 h before, 10 days) is recorded as 40%; in experiment [1] (Example 222, Fluorouracil 100 mg/kg and oxaliplatin 10 mg/kg intraperitoneal injection single, CDK inhibitor oral 80 mg/kg single, 4 h before, 10 days) it was 30%.
In the case of `COCc1cc(C(=O)Nc2cc([C@H]3CC[C@@H](OC(=O)NC(C)C)C3)[nH]n2)n(C)n1` [PF-07104091], in experiment [1] (Example 161, Docetaxel (DTX) intraperitoneal injection 10 mg/kg single, CDK inhibitor oral 50 mg/kg single 8 h before, cycle 8 days), the “Relative remission rate (%)” value came out at 40%.
`CC(=O)Nc1ccc([C@H](C)C(=O)Nc2ncc(C(C)C)s2)cc1` [PHA-690509]: the “Relative remission rate (%)” value in experiment [1] (Example 123, Irinotecan (CPT-11) intraperitoneal injection 240 mg/kg single, CDK inhibitor oral 60 mg/kg single 12 h before, cycle 7 days) came to 40%.
In the case of `CC(C)CC(=O)Nc1[nH]nc2c1CN(C(=O)C1CCN(C)CC1)C2(C)C` [PHA-793887], the “Relative remission rate (%)” value in experiment [1] (Example 160, Docetaxel (DTX) intraperitoneal injection 10 mg/kg single, CDK inhibitor oral 70 mg/kg single 4 h before, cycle 8 days) was determined as 30%.
For the compound `COCCN1CCN(Cc2ccc(-c3n[nH]c4c3C(=O)c3c(NC(=O)NN5CCOCC5)cccc3-4)cc2)CC1` [RGB-286638], the “Relative remission rate (%)” value in experiment [1] (Example 124, Irinotecan (CPT-11) intraperitoneal injection 240 mg/kg single, CDK inhibitor oral 100 mg/kg single 12 h before, cycle 7 days) was determined as 60%; in experiment [1] (Example 130, Irinotecan (CPT-11) intravenous injection 200 mg/kg single, CDK inhibitor oral 100 mg/kg single 8 h before, cycle 7 days), 50%.
In the case of `COc1ccc(F)c(F)c1C(=O)c1cnc(NC2CCN(S(C)(=O)=O)CC2)nc1N` [RO4584820], the “Relative remission rate (%)” value in experiment [1] (Example 218, Fluorouracil 100 mg/kg and irinotecan 200 mg/kg intravenous injection single, CDK inhibitor oral 70 mg/kg single, 4 h before, 10 days) worked out at 50%.
Turning to `COc1cc(OC)c(/C=C/S(=O)(=O)Cc2ccc(OC)c(NCC(=O)O)c2)c(OC)c1` [Rigosertib], the “Relative remission rate (%)” value worked out at 20% in experiment [1] (Example 116, Irinotecan (CPT-11) intraperitoneal injection 240 mg/kg single, CDK inhibitor oral 250 mg/kg single 4 h before, cycle 7 days); 30% in experiment [1] (Example 189, Gemcitabine (GEM) intraperitoneal injection 120 mg/kg single, CDK inhibitor oral 250 mg/kg single, 6 h before, 8 days); 20% in experiment [1] (Example 214, Fluorouracil 100 mg/kg and irinotecan 200 mg/kg intravenous injection single, CDK inhibitor oral 250 mg/kg single, 2 h before, 10 days).
As for `Cc1c(Br)c(Br)c2c3c1nc(N1CCNCC1)n3CCC2` [SEL120], the “Relative remission rate (%)” value in experiment [1] (Example 75, Oxaliplatin intraperitoneal injection 20 mg/kg single, CDK inhibitor oral 80 mg/kg single 8 h before, cycle 8 days) was 40%; in experiment [1] (Example 120, Irinotecan (CPT-11) intraperitoneal injection 240 mg/kg single, CDK inhibitor oral 80 mg/kg single 8 h before, cycle 7 days), 40%.
`CN1CC[C@H](c2c(OP(=O)(O)O)cc(O)c3c(=O)cc(-c4ccccc4Cl)oc23)[C@H](O)C1` [TP-1287]: in experiment [1] (Example 37, Fluorouracil (5-Fu) intraperitoneal injection 125 mg/kg single, CDK inhibitor oral 10 mg/kg single 10 h before, cycle 10 days), the “Relative remission rate (%)” value is 40%.
In the case of `CC(C)c1c2cc(-c3nc(Nc4ccc(N5CCNCC5)cn4)ncc3F)ccc2nn1C` [TQB-3616], the “Relative remission rate (%)” value is given as 30% in experiment [1] (Example 32, Fluorouracil (5-Fu) intraperitoneal injection 125 mg/kg single, CDK inhibitor oral 70 mg/kg single 4 h before, cycle 10 days); 50% in experiment [1] (Example 148, Docetaxel (DTX) intraperitoneal injection 10 mg/kg single, CDK inhibitor oral 70 mg/kg single 4 h before, cycle 8 days); 60% in experiment [1] (Example 197, Gemcitabine 60 mg/kg and paclitaxel 10 mg/kg intravenous injection single, CDK inhibitor oral 70 mg/kg single, 4 h before, 8 days); 60% in experiment [1] (Example 220, Fluorouracil 100 mg/kg and oxaliplatin 10 mg/kg intraperitoneal injection single, CDK inhibitor oral 70 mg/kg single, 6 h before, 10 days).
As for `CN1CC[C@@H](c2c(O)cc(O)c3c(=O)cc(-c4ccc(C(F)(F)F)cc4Cl)oc23)[C@@H]1CO` [Voruciclib], the “Relative remission rate (%)” value was 70% in experiment [1] (Example 76, Oxaliplatin intraperitoneal injection 20 mg/kg single, CDK inhibitor oral 250 mg/kg single 4 h before, cycle 8 days); 80% in experiment [1] (Example 203, Gemcitabine 60 mg/kg and paclitaxel 10 mg/kg intravenous injection single, CDK inhibitor oral 250 mg/kg single, 8 h before, 8 days).
Turning to `CN1C/C=C/CCOc2cccc(c2)-c2ccnc(n2)Nc2cccc(c2)C1` [Zotiraciclib], the “Relative remission rate (%)” value in experiment [1] (Example 33, Fluorouracil (5-Fu) intraperitoneal injection 125 mg/kg single, CDK inhibitor oral 100 mg/kg single 4 h before, cycle 10 days) worked out at 20%; in experiment [1] (Example 152, Docetaxel (DTX) intraperitoneal injection 10 mg/kg single, CDK inhibitor oral 100 mg/kg single 8 h before, cycle 8 days), 30%.
Take FN-1501: the “Relative remission rate (%)” value in experiment [1] (Example 36, Fluorouracil (5-Fu) intraperitoneal injection 125 mg/kg single, CDK inhibitor oral 200 mg/kg single 6 h before, cycle 10 days) stood at 60%; in experiment [1] (Example 156, Docetaxel (DTX) intraperitoneal injection 10 mg/kg single, CDK inhibitor oral 200 mg/kg single 10 h before, cycle 8 days), 60%; in experiment [1] (Example 169, Docetaxel (DTX) intravenous injection 10 mg/kg single, CDK inhibitor oral 200 mg/kg single 8 h before, cycle 8 days), 50%.
